# Source: patent US7144866B2, “Avermectin derivatives” (The Kitasato Institute, priority 2000, dated 2006)
# Experiments:
# Caenorhabditis elegans = test: Antiparasitic activity against Caenorhabditis elegans in a 96 well microplate, movement graded 0 to 3, MIC; type: cell-based; settings: concentration required to give Indication 2 (or 3) for caenorhabditis elegans; incubated at 20° C., observed after 24 and 48 hours
# Excerpt: (§1) Methods for determining antiparasitic effects of the compounds disclosed by the present invention are explained below.
# (§2) As model insects for simple determination of antiparasitic and insecticidal activities, those insects are desired which can be easily obtained and bred in laboratories, and have no pathogenicity to a human. Caenorhabditis elegans, an unparasitic eelworm widely used in experiments of genetics, was used as a typical steam worm, and artemia salina used as feed for tropical fish and named Brine shrimp, was used instead of insects. […]
# (§3) Each well of a 96 well microplate was filled with the solution of the test compound (methanol as a solvent), and the solvent was removed using a vacuum pump, then 250 μl of the assay medium was added to each wells (the assay medium was prepared by dissolving 7.5 mM sodium hydrogencarbonate, 7.5 mM potassium chloride, 7.5 mM calcium chloride dihydrate and 7.5 mM magnesium sulfate heptahydrate in distilled water and adding 0.01% of lecithin to the solution), and then the microplate was shaken using a microplate mixer for 15 minutes. […] The results were compared to those obtained without addition of the test compound, and evaluated by 4 grades. […]
# artemia salina = test: Insecticidal model activity against artemia salina (Brine shrimp) larvae in a 96 well microplate, movement graded 0 to 3, MIC; type: cell-based; settings: concentration required to give Indication 2 (or 3) for artemia salina; incubated at 20° C., observed after 24 and 48 hours
# Excerpt: as §1, §2, §3
structure (smiles),measurement,setting,value
"CCC(C)C1O[C@]2(C=C[C@@H]1C)C[C@@H]1CC(C/C=C(\C)[C@@H](OC3C[C@H](OC)[C@@H](OC4C[C@H](OC)[C@@H](O)[C@H](C)O4)[C@H](C)O3)[C@@H](C)/C=C/C=C3\COC4[C@H](O)C(C)=CC(C(=O)O1)[C@]34O)O2 (some centres unmarked) [B1a*, avermectin B1a]",C.E. minimum inhibitory concentration (MIC),Caenorhabditis elegans,2 ng/mL
same,A.S. minimum inhibitory concentration (MIC),artemia salina,0.5 ng/mL
